Patent US20200339544A1 (JOINT STOCK COMPANY "BIOCAD", priority 2017, published 2020)
Like-named read-outs stand apart in the source and are kept apart here. Marks after values point to notes of the source that are not given here.

What was measured:
[1] = biological target: T1, WT EGFR (Wild-Type EGFR) (Homo sapiens, UniProt P00533); assay: Inhibition of WT EGFR kinase activity (ADP-Glo); assay type: biochemical
T1 construct: purchased SignalChem
Method: (§1) To assess IC50 values of the compounds disclosed herein, a biochemical assay of inhibition of kinase activity in a non-cellular system and a functional cellular anti-proliferation assay were used.
(§2) To assess inhibition of WT EGFR (Wild-Type EGFR), DM EGFR (DoubleMutantEGFR, L828R/T790M) kinase activity, SignalChem kinase system and ADP-Glo™ Kinase Assay (V9102, Promega) detection kit were used.
(§3) The measurements were carried out in a 25 μL reaction volume using a 96-well plate. […] The solution of 0.5 mg/mL peptide substrate and 50 μM ATP in the same buffer were added; the solution was incubated for 180 minutes at 37° C. To detect the amount of ATP taken up during the kinase reaction, the ADP Glo Detection Kit (V9102, Promega) was used. The luminescence was measured with the Infinite M200Pro plate spectrophotometer (Tecan, Switzerland). IC50 values were calculated using Magellan 7.2 software (Tecan, Switzerland) approximating experimental points by four-parameter logistic model with the optimization by Levenberg-Marquardt (Table 14).

[2] = Enzyme stability in human liver S9 fractions; assay type: in vitro ADME; details: 0.5 mg/mL pooled human liver S9 fractions; 10 μM compound; 37° C.; pH 7.4; read-out: Stability in liver S9 fractions, Clint
Method: Determination of enzyme stability.
Measuring of candidate enzyme stability enabled estimation of the stability of the compounds towards the action of liver enzymes.
Enzyme degradation rate was measured by incubating the reaction mixture in a dry block thermostat at 37° C., said reaction mixture comprising 0.5 mg/mL of pooled human liver S9 fractions (XenoTech, USA, cat # H0610), 10 μM compound, 2 mM β-nicotinamide adenine dinucleotide (Carbosynth, UK, cat # NN10871) and 4 mM magnesium chloride in 0.1 M sodium-phosphate buffer, pH=7.4. The reaction was quenched with acetonitrile (100 μL of acetonitrile/100 μL of the reaction mixture). After quenching, the samples were centrifuged at 10000 rpm for 10 minutes. Supernatant fluid was tested by chromatographic technique using Agilent1200 (Agilent, USA). We used gradient elution (1 mL/min flow rate). A graph of the logarithm of substance's peak area as a function of time was made. The dependent factor of the line corresponded to the elimination rate constant K based on which the drug's half-life T½ and intrinsic clearance CLint were calculated:
Based on the data obtained, candidate enzyme stability in human liver S9 fractions was determined (see Table 11).

[3] = General cytotoxicity on HepG2 cells; assay type: cell-based; details: human; general cytotoxicity, HepG2 cells, 72 hours, average of several tests
Method: (§4) The CC50 values were determined in the test for General cytotoxicity on HepG2 cells (rhepatocellular carcinoma, ATCC® HB-8065™) (Table 16). The cells were subcultured in DMEM medium (PanEco, S420p) supplemented with 10% FBS (Gibco, #16140071) for at least 1 passage after thawing, washed with PBS and passaged in 96-well culture plates (3599, Corning) at a concentration of 2*10^4 cells/100 μL per well, and incubated for 16-18 h. The test substances were titrated in DMSO and transferred to DMEM (PanEco, S420p) medium supplemented with 2% FBS, added to the cells and incubated at 37° C. for 72 hours; viability of the cells was then assessed using Alamar Blue dye (ThermoFisher, # DAL1100). CC50 was determined similarly to IC50.
(§5) The ratio between CC50 for HepG2 cell line and IC50 for H1975 cell line is the therapeutic index (TI): […]

[4] = system: HepG2 cells; assay: General cytotoxicity on HepG2 cells; assay type: cell-based; details: therapeutic index, CC50 HepG2 / IC50 H1975
Method: as §4, §5

[5] = Chemical stability in human blood plasma; assay type: in vitro ADME; details: pooled human blood plasma; 10 μm; 4 hours at 37° C.; substance amount remaining
Method: 2) Determination of chemical stability in human blood plasma.
Determination of stability in human blood plasma was performed using pooled human blood plasma taken from ten healthy donors. The initial candidate solution (10 mM in DMSO) was diluted with pooled blood plasma to a concentration of 10 μm (test solution). The test solution was incubated in a dry block thermostat for 4 hours at 37° C. HPLC with Agilent 1200 liquid chromatography system (Agilent, USA) was employed to determine peak areas of the compounds in test samples, said peak areas corresponding to the initial test time (prior to incubation) and the final test time (after incubation in a dry block thermostat for 4 hours at 37° C.), proteins were preliminarily precipitated with acetonitrile. We used gradient elution (1 mL/min flow rate). Substance amount in % in a sample after thermostatting was determined.
The stability of the compounds was estimated.

[6] = system: A549 (lung adenocarcinoma, WT); assay: Antiproliferative activity on A549 cells (Alamar Blue); assay type: cell-based; details: Homo sapiens, antiproliferative test
Method: (§6) Antiproliferative activity of EGFR inhibitors (Tables 15 and 16) was measured in cell-based bioassay on continuous epithelial cell cultures: A549 (lung adenocarcinoma, ATCC® CRM-CCL-185™—WT), HCC827 (lung adenocarcinoma, ATCC® CRL-2868™—SM (SingleMutantEGFR, exon19delE746-A750)) and H1975 (lung adenocarcinoma, ATCC® CRL-5908™—DM (DoubleMutantEGFR, L828R/T790M)) using cell viability reagent Alamar Blue (ThermoFisher, # DAL1100). Cells were cultured in 10% FBS-supplemented (Gibco, #16140071) RPMI-1640 (PanEco, S330p) for at least 1 passage after thawing, washed with PBS and passaged in 96-well culture plates (3599, Corning) with RPMI-1640 growth medium supplemented with 2% FBS in an amount of 5*10^3 cells/well for A549, 10*10^3 cells/well for HCC827 and 15*10^3 cells/well for H1975 in 100 μL, and incubated at 37° C. in an incubator (Thermo Forma, USA) under 5% of CO2 for 16-18 h for cell attachment.
(§7) The test compounds were dissolved in DMSO in the selected range of concentrations and transferred to RPMI-1640 medium (PanEco, S330p) supplemented with 2% FBS. After adding 50 μl of the prepared dilutions to the cells, the incubation mixture contained the final concentrations of the test substances and no more than 1% DMSO. The plates were Incubated at 37° C. for 72 h. After incubation, 15 μl of Alamar Blue vital dye (ThermoFisher, # DAL1100) was added to each well. The plates were shaken on an orbital shaker (Biosan, Latvia) and further incubated for 3-5 h in a CO2 incubator (Thermo Forma, USA). Number of living cells was estimated using a plate spectrophotometer Infinite M200Pro, (Tecan, Switzerland) measuring fluorescent signal at the excitation wavelength (λEx) of 540 nm and emission wavelength (λEm) of 590 nm.
IC50 was calculated using Magellan 7.2 software (Tecan, Switzerland) approximating experimental points by four-parameter logistic model with the optimization by Levenberg-Marquardt.
(§8) The ratio between IC50 for cell lines containing wild-type EGFR (A549) and IC50 for cell lines containing target mutation L828R/T790M (H1975) is the selectivity index (SI): […]

[7] = system: H1975 (lung adenocarcinoma, DM, L828R/T790M); assay: Antiproliferative activity on H1975 cells (Alamar Blue); assay type: cell-based; details: for IC50: Homo sapiens, NCI-H1975, H1975 cells; for SI IC50(A549)/IC50(DM): selectivity index, A549 vs H1975 cells
Method: as §6, §7
IC50 was calculated using Magellan 7.2 software (Tecan, Switzerland) approximating experimental points by four-parameter logistic model with the optimization by Levenberg-Marquardt. […]
as §8

[8] = biological target: T2, DM EGFR (DoubleMutantEGFR, L828R/T790M) (Homo sapiens, UniProt P00533, L858R/T790M); assay: Inhibition of DM EGFR kinase activity (ADP-Glo); assay type: biochemical; details: for IC50: inhibition of kinase activity, EGFR DM (L828R/T790M); for SI, IC50(WT)/IC50(DM): selectivity index, kinase EGFR WT vs EGFR DM
T2 construct: purchased SignalChem
Method: as §1, §2, §3

[9] = average values obtained in several tests, Table 16, read-out: H1975 (DM) IC50
[10] = antiproliferative test, Table 15, read-out: IC50 H1975 (DM)

| SMILES | IC50 [1] [nM] | Intrinsic clearance in human liver S9 fractions at 10 µM [2] [µL/min/mg] | Stability in blood plasma, % [5] [%] | IC50 [6] [nM] | IC50 [7, 9] [nM] | IC50 [7, 10] [nM] | IC50 [8] [nM] | SI, IC50(WT)/IC50(DM) [8] | CC50 at 72 h [3] [nM] | TI, CC50/IC50 [4] | SI IC50(A549)/IC50(DM) [7] |
| --- | --- | --- | --- | --- | --- | --- | --- | --- | --- | --- | --- |
| C=CC(=O)Nc1cc(Nc2nccc(C(=O)c3c(OC)cc(OC)cc3OC)n2)c(OC)cc1N(C)CCN(C)C [EGFR_3365_124, N-(2-((2-(dimethylamino)ethyl)(methyl)amino)-4-methoxy-5-((4-(2,4,6-trimethoxybenzoyl)pyrimidin-2-yl)amino)phenyl)acrylamide] | 76.3 | 22.2 | 90.7 | 19700 | 66.3 | 66.3 | 3.57 | 21.41 | > 50000 | >754 | 298 |
| C=CC(=O)Nc1cc(Nc2nccc(C(=O)c3ccc(OC(C)C)cc3OC)n2)c(OC)cc1N(C)CCN(C)C [EGFR_3365_103, N-(2-((2-(dimethylamino)ethyl)(methyl)amino)-5-((4-(4-isopropoxy-2-methoxybenzoyl)pyrimidin-2-yl)amino)-4-methoxyphenyl) acrylamide] | 22.6 | 20.4 | 96.2 | 12600 | 13.2 | 13.2 | 2.14 | 10.60 | 29400 | 2232 | 954 |
| C=CC(=O)Nc1cc(Nc2nccc(C(=O)c3ccc(NCCO)cc3)n2)c(OC)cc1N(C)CCN(C)C.O=CO [EGFR_3365_106, N-(2-((2-(dimethylamino)ethyl)(methyl)amino)-5-((4-(4-((2-hydroxyethyl)amino)benzoyl)pyrimidin-2-yl)amino)-4-methoxyphenyl)acrylamide formate] | 108 | 6.7 | 95.2 | > 20000 | 33.3 | 33.3 | 5.5 | 19.68 | > 50000 | >1501** | >601 |
| C=CC(=O)Nc1cc(Nc2nccc(C(=O)c3ccc(OC)cc3OC(C)C)n2)c(OC)cc1N(C)CCN(C)C [EGFR_3365_104] | 113 | 21.8 | 77.2 | 3780 | 258 | 258 | 6.42 | 17.61 | 18700 | 73 | 15 |

Continued, in another order:

| IC50 [1] [nM] | Intrinsic clearance in human liver S9 fractions at 10 µM [2] [µL/min/mg] | Stability in blood plasma, % [5] [%] | IC50 [6] [nM] | IC50 [7, 9] [nM] | IC50 [7, 10] [nM] | IC50 [8] [nM] | SI, IC50(WT)/IC50(DM) [8] | SMILES | CC50 at 72 h [3] [nM] | TI, CC50/IC50 [4] | SI IC50(A549)/IC50(DM) [7] |
| --- | --- | --- | --- | --- | --- | --- | --- | --- | --- | --- | --- |
| 25.4 | 12.8 | 100.0 | 21400 | 4.35 | 4.35 | 1.71 | 14.85 | C=CC(=O)Nc1cc(Nc2nccc(C(=O)c3ccc(N4CCC[C@H](O)C4)cc3)n2)c(OC)cc1N(C)CCN(C)C [EGFR_3365_108, (S)-N-(2-((2-(dimethylamino)ethyl)(methyl)amino)-5-((4-(4-(3-hydroxypiperidin-1-yl)benzoyl)pyrimidin-2-yl)amino)-4-methoxyphenyl)acrylamide] | 47900 | 11026 | 4925 |
| 51.4 | 16 | 93.9 | 14200 | 12.1 | 12.1 | 2.02 | 25.37 | C=CC(=O)Nc1cc(Nc2nccc(C(=O)c3ccc(N4CC[C@H](OC)C4)cc3)n2)c(OC)cc1N(C)CCN(C)C [EGFR_3365_114, (S)-N-(2-((2-(dimethylamino)ethyl)(methyl)amino)-4-methoxy-5-((4-(4-(3-methoxypyrrolidin-1-yl)benzoyl)pyrimidin-2-yl)amino)phenyl)acrylamide] | 23800 | 1970 | 1175 |
| 25.2 | 14.8 | 98.2 | 17700 | 8.66 | 8.66 | 3.14 | 8.03 | C=CC(=O)Nc1cc(Nc2nccc(C(=O)c3ccc(N4CCC[C@@H](O)C4)cc3)n2)c(OC)cc1N(C)CCN(C)C [EGFR_3365_109, (R)-N-(2-((2-(dimethylamino)ethyl)(methyl)amino)-5-((4-(4-(3-hydroxypiperidin-1-yl)benzoyl)pyrimidin-2-yl)amino)-4-methoxyphenyl)acrylamide] | 45400 | 5245 | 2043 |
